The text below walks through data of patent US20090124817A1 (The Industry & Academic Cooperation in Chungnam National …, priority 2007, published 2009).

SMILES strings stand for the structures.

Data set [1] in a line: Particle size by dynamic light scattering / laser diffraction. Type of data set: physicochemical. Here is the method:
(§1) The particle size and particle size distribution of samples were determined by dynamic light scattering (DLS) using electrophoretic light scattering spectrophotometer (ELS-8000, Otsuka Electronics, Japan) at a fixed angle of 90° and at room temperature. The samples were dispersed in mineral oil (Macrol 52, Exxon Mobil Co., USA) and sonicated before measurement. The particle size and particle size distribution of samples were also determined with a Sympatec laser diffraction analyzer (HELOS/RODOS, Clausthal-Zellerfeld, Germany) consisted of a laser sensor HELOS and a RODOS dry-powder air-dispersion system. The specific surface area was determined using the gas adsorption method. Calculation is based on the BET equation. Surface Area Analyzer ASAP 2010 (Micromeritics Instrument Corporation, USA) was used.

The nature of data set [2]: Specific surface area by gas adsorption (BET). Type of data set: physicochemical. The note with it: BET equation. Here is the method: as §1
[3] abbreviates: DLS, dispersed in mineral oil, room temperature.

`CC(C)c1c(C(=O)Nc2ccccc2)c(-c2ccccc2)c(-c2ccc(F)cc2)n1CC[C@@H](O)C[C@@H](O)CC(=O)[O-].CC(C)c1c(C(=O)Nc2ccccc2)c(-c2ccccc2)c(-c2ccc(F)cc2)n1CC[C@@H](O)C[C@@H](O)CC(=O)[O-].[Ca+2]` [Example 25, atorvastatin calcium] yielded a Mean particle size in data set [1] (setting [3]) of 65 nm. For the same molecule, the Specific surface area in data set [2] amounted to 120.35 m^2/g.
The matching figures for `CC(C)c1c(C(=O)Nc2ccccc2)c(-c2ccccc2)c(-c2ccc(F)cc2)n1CC[C@@H](O)C[C@@H](O)CC(=O)[O-].CC(C)c1c(C(=O)Nc2ccccc2)c(-c2ccccc2)c(-c2ccc(F)cc2)n1CC[C@@H](O)C[C@@H](O)CC(=O)[O-].[Ca+2]` [Example 18, atorvastatin calcium]: 155 nm and 79.78 m^2/g.
Molecule `CC(C)c1c(C(=O)Nc2ccccc2)c(-c2ccccc2)c(-c2ccc(F)cc2)n1CC[C@@H](O)C[C@@H](O)CC(=O)[O-].CC(C)c1c(C(=O)Nc2ccccc2)c(-c2ccccc2)c(-c2ccc(F)cc2)n1CC[C@@H](O)C[C@@H](O)CC(=O)[O-].[Ca+2]` [Example 10, atorvastatin calcium] registered a Mean particle size in data set [1] (setting [3]) of 727 nm. The molecule also returned a Specific surface area in data set [2] of 30.88 m^2/g.
For the molecule `CC(C)c1c(C(=O)Nc2ccccc2)c(-c2ccccc2)c(-c2ccc(F)cc2)n1CC[C@@H](O)C[C@@H](O)CC(=O)[O-].CC(C)c1c(C(=O)Nc2ccccc2)c(-c2ccccc2)c(-c2ccc(F)cc2)n1CC[C@@H](O)C[C@@H](O)CC(=O)[O-].[Ca+2]` [Starting material, atorvastatin calcium, reference compound], in data set [1] (DLS / laser diffraction), the Mean particle size worked out at 3.87 μm. Also, the Specific surface area in data set [2] is reported as 14.56 m^2/g.
The matching figures for `CC(C)c1c(C(=O)Nc2ccccc2)c(-c2ccccc2)c(-c2ccc(F)cc2)n1CC[C@@H](O)C[C@@H](O)CC(=O)[O-].CC(C)c1c(C(=O)Nc2ccccc2)c(-c2ccccc2)c(-c2ccc(F)cc2)n1CC[C@@H](O)C[C@@H](O)CC(=O)[O-].[Ca+2]` [Comparative Example 1, atorvastatin calcium, reference compound]: 7.31 μm and 0.95 m^2/g.
On to `CC(C)c1c(C(=O)Nc2ccccc2)c(-c2ccccc2)c(-c2ccc(F)cc2)n1CC[C@@H](O)C[C@@H](O)CC(=O)[O-].CC(C)c1c(C(=O)Nc2ccccc2)c(-c2ccccc2)c(-c2ccc(F)cc2)n1CC[C@@H](O)C[C@@H](O)CC(=O)[O-].[Ca+2]` [Example 2, atorvastatin calcium], for which the Mean particle size in data set [1] (setting [3]) was 179 nm. In data set [2], this molecule registered a Specific surface area of 90.28 m^2/g.
Take `CC(C)c1c(C(=O)Nc2ccccc2)c(-c2ccccc2)c(-c2ccc(F)cc2)n1CC[C@@H](O)C[C@@H](O)CC(=O)[O-].CC(C)c1c(C(=O)Nc2ccccc2)c(-c2ccccc2)c(-c2ccc(F)cc2)n1CC[C@@H](O)C[C@@H](O)CC(=O)[O-].[Ca+2]` [Example 9, atorvastatin calcium]: in data set [1] (setting [3]), the Mean particle size turned out to be 265 nm. This molecule also displayed a Specific surface area in data set [2] of 47.82 m^2/g.
